Earlier results on nine compounds are cited in paper PMC7238120, “Strong and Selective Inhibitory Effects of the Biflavonoid Selamariscina A against CYP2C8 and CYP2C9 Enzyme Activities in Human Liver Microsomes” (Pharmaceutics, 2020).

Like-named read-outs stand apart in the source and are kept apart here.

Data set [1] deals with T1, CYP2C8 (Homo sapiens, UniProt P10632).
T1 sequence (P10632 1-490): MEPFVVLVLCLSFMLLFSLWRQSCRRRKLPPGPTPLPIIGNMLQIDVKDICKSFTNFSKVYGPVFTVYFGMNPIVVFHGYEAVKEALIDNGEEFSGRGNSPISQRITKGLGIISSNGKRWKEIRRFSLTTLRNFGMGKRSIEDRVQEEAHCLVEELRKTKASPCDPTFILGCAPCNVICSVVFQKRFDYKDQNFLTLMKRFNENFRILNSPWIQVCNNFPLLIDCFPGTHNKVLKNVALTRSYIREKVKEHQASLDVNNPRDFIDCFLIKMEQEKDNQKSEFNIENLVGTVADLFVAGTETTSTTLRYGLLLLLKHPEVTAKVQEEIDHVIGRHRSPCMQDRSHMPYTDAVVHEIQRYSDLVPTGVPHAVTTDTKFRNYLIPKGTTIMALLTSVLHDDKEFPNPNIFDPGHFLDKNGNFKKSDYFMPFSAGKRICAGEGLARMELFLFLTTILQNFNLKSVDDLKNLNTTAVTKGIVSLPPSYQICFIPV
As to conditions: cited from earlier work.

The test system of data set [2] is CYP3A4. On the set-up: method as in PMID 1602384. Conditions: HLMs; cited from earlier work.
Data set [3] addresses CYP2C9 (Homo sapiens, UniProt P11712). Conditions: read-out: Ki, CYP2C9, known inhibitor; cited from earlier work.
Data set [4] has as its target T2, CYP1A2 (Homo sapiens, UniProt P05177).
T2 construct: incubation mixtures containing pooled human liver microsomes (HLMs, XTreme 200, XenoTech); tissue XenoTech XTreme 200; host or cells: pooled human liver microsomes
T2 sequence (P05177 1-516): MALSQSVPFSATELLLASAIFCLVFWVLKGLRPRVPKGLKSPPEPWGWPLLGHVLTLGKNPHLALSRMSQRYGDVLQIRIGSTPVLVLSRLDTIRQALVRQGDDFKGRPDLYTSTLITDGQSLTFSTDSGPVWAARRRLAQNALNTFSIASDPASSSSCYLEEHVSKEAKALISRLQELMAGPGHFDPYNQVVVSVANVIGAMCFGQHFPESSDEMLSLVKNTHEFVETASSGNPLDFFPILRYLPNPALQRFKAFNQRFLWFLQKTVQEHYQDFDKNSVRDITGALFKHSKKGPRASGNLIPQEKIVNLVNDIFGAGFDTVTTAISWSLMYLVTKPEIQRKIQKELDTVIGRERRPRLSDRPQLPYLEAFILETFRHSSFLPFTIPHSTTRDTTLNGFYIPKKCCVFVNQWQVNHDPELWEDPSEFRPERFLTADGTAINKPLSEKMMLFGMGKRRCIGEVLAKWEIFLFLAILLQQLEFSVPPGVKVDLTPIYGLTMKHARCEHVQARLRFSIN
Further details: method as in PMID 7483658. Conditions: human liver microsomes; read-out: Ki, CYP1A2, competitive inhibition; cited from earlier work.

Data set [5] deals with T3, UGT1A1 (Homo sapiens, UniProt P22309).
T3 sequence (P22309 26-533): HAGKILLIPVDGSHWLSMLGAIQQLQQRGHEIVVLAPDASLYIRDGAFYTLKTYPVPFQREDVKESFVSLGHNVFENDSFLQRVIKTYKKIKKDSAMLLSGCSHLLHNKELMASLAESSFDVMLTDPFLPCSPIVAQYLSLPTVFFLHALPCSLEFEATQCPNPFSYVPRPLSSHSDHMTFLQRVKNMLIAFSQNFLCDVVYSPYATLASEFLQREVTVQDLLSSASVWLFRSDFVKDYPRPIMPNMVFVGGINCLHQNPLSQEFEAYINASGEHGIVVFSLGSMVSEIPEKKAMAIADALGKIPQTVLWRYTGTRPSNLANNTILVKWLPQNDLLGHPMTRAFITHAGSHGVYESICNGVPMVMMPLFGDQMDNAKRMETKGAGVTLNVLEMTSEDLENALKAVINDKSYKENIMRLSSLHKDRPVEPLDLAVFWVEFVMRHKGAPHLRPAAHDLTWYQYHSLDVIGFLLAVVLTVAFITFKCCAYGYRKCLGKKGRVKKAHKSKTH
On the set-up: method as in PMID 12386134. As to conditions: read-out: IC50, UGT1A1-mediated estradiol glucuronidation; cited from earlier work.

The mark [6] stands for this setting: read-out: Ki, CYP2C8, known inhibitor.

CYP2C9, sequence (P11712 whole entry): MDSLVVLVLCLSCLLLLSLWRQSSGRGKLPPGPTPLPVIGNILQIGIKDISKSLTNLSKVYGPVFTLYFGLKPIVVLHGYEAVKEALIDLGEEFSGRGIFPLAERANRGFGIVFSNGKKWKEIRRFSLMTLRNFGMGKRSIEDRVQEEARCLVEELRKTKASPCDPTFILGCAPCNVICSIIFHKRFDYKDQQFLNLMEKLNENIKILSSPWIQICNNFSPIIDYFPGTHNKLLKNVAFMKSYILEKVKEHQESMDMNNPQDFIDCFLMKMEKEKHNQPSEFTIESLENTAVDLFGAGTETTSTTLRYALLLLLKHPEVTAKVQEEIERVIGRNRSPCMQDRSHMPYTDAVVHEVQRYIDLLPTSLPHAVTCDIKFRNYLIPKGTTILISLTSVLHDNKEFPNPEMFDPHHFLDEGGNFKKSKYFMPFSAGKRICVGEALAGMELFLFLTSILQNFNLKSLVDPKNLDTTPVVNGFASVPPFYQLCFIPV

With `COc1cc(C(=O)NS(=O)(=O)c2ccccc2C)ccc1Cc1cn(C)c2ccc(NC(=O)OC3CCCC3)cc12` [zafirlukast], in data set [1] (read-out: Ki, CYP2C8, well-known inhibitor), the Ki is 390 nM.

Take `O=c1c(O)c(-c2ccc(O)cc2)oc2cc(O)cc(O)c12` [kaempferol]: the “Concentrations inhibiting metabolism of nifedipine and felodipine by CYP3A4” value in data set [2] was over 10 µM.

As for `O=c1c(O)c(-c2ccc(O)c(O)c2)oc2cc(O)cc(O)c12` [quercetin], in data set [2], the “Concentrations inhibiting metabolism of nifedipine and felodipine by CYP3A4” value was over 10 µM.

For the compound `Cc1cn(-c2cc(NC(=O)c3ccc(C)c(Nc4nccc(-c5cccnc5)n4)c3)cc(C(F)(F)F)c2)cn1` [nilotinib], in data set [1] (setting [6]), the Ki was 100 nM.

For `CNCCC(Oc1ccc(C(F)(F)F)cc1)c1ccccc1` (stereo not shown) [fluoxetine], the Ki in data set [3] was 19000 to 87000 nM.

Take `COc1ccc(-c2cc(=O)c3c(OC)c(OC)c(OC)c(OC)c3o2)cc1` [tangeretin]: in data set [4], the Ki is 68 nM. Also, the IC50 in data set [5] is 1000 nM.

Turning to `CCOC(=O)C1=C(C)NC(C)=C(C(=O)OC)C1c1cccc(Cl)c1Cl` (stereo not shown) [felodipine], the IC50 in data set [1] (read-out: IC50, CYP2C8, known inhibitor) is 1200 nM.

Consider `CNC(=O)c1ccccc1Sc1ccc2c(/C=C/c3ccccn3)n[nH]c2c1` [axitinib], for which the Ki in data set [1] (setting [6]) was 170 nM.

Turning to `COCCCC/C(=N\OCCN)c1ccc(C(F)(F)F)cc1` [fluvoxamine], in data set [3], the inhibitory constant (Ki) was 630 to 16000 nM.

The Ki is the equilibrium dissociation constant of an inhibitor or competing ligand from its target. In general, IC50 refers to the midpoint of a concentration-inhibition curve.
